Reference: patent US20040186179A1, “Pharmaceutical composition” (priority 2000, published 2004)
Read-outs that look alike come from different tables or passages of the source. Marks after values point to notes of the source that are not given here.

Legend:
[1] = test system: patients with knee or hip primary osteoarthritis; test: Four week placebo-controlled trial, most pain over the previous 24 hours on a 100 mm VAS; assay type: in vivo, human
Experimental: (§1) A four week multicenter randomized double-blind double-dummy placebo-controlled parallel group trial (the study) of four dosing regimens of 5-methyl-2-(2′-chloro-6′-fluoroanilino)phenylacetic acid in patients with knee or hip primary osteoarthritis is performed, using diclofenac as a comparator. Patients are male and female, from 18 to 75 years of age, have a clinical and radiological diagnosis of knee or hip osteoarthritis as defined by the American College of Rheumatology criteria, and have a pain intensity of at least 40 mm (Visual Analog Scale) in the affected joint prior to screening for inclusion in the study. 584 patients are randomized to receive either 50, 100, or 200 mg 5-methyl-2-(2′-chloro-6′-fluoroanilino)phenylacetic acid or 75 mg diclofenac administered orally twice a day, or 400 mg 5-methyl-2-(2′-chloro-6′-fluoroanilino)phenylacetic acid administered orally once a day, or placebo. Drug and placebo are administered in capsules. The comparator, diclofenac, is an extended release tablet that is over-encapsulated to match the placebo. The treatment duration is for 28 days.
(§2) Pharmacokinetics are performed on 52 of the patients who receive 5-methyl-2-(2′-chloro-6′-fluoroanilino)phenylacetic acid. Blood samples are taken at 0, 0.5, 1, 2, 3, 4 and 6 hours following administration of 5-methyl-2-(2′-chloro-6′-fluoroanilino)phenylacetic acid. Plasma concentrations of 5-methyl-2-(2′-chloro-6′-fluoroanilino)phenylacetic acid are measured by an LC/MS assay with a limit of quantitation of 10 ng/ml. Cmax and tmax AUC (0-6) are determined for day 1 and Cmax^ss and tmax^ss AUCτ^ss, Cmin^ss, Cav^ss, peak-trough fluctuation (PTF) and Cl/F at steady state are determined on day 28. The primary efficacy parameter is the most pain experienced over the previous 24 hours on a 100 mm VAS.

[2] = Pharmacokinetics in osteoarthritis patients, plasma concentrations by LC/MS; assay type: in vivo, human; conditions: for Tmax / Cmax / AUC(0-t) / AUC: plasma; for AUC(0-t): read-out: AUC0-6
Experimental: as §1, §2

[3] = both sexes, human, po, 50 mg, 50 mg bid oral, day 0
[4] = both sexes, human, po, 50 mg, 50 mg bid oral, day 28
[5] = both sexes, human, po, 100 mg, 100 mg bid oral, day 0
[6] = both sexes, human, po, 100 mg, 100 mg bid oral, day 28
[7] = both sexes, human, po, 200 mg, 200 mg bid oral, day 0
[8] = both sexes, human, po, 200 mg, 200 mg bid oral, day 28
[9] = both sexes, human, po, 400 mg, 400 mg qd oral, day 0
[10] = both sexes, human, po, 400 mg, 400 mg qd oral, day 28

## O=C(O)Cc1ccccc1Nc1c(Cl)cccc1Cl [diclofenac, reference compound]
[1]; 75 mg twice a day, extended release tablet, day 7, 100 mm VAS
  VAS pain, change from baseline: −27.9 mm
[1]; 75 mg twice a day, extended release tablet, day 14, 100 mm VAS
  VAS pain, change from baseline: −30.4 (23.0)* mm
[1]; 75 mg twice a day, extended release tablet, day 28, 100 mm VAS
  VAS pain, change from baseline: −31.8 mm

## Cc1ccc(Nc2c(F)cccc2Cl)c(CC(=O)O)c1 [5-methyl-2-(2′-chloro-6′-fluoroanilino)phenylacetic acid]
[2]; 50 mg bid oral, day 28
  CLss/F: 15.0 ± 4.7 L/h
[2]; 100 mg bid oral, day 28
  CLss/F: 13.3 ± 3.3 L/h
[2]; 200 mg bid oral, day 28
  CLss/F: 15.0 ± 3.5 L/h
[2]; 400 mg qd oral, day 28
  CLss/F: 17.4 ± 6.1 L/h
[2]; 50, 100, 200 mg twice daily and 400 mg once daily, day 28
  Dose dependence of AUC and Cmax: dose proportional increase
[2]; both sexes, human, oral, all dose groups, read-out: tmax, typical
  Tmax: 2 to 3 h
[2]; [3]
  Cmax: 914 ± 340 ng/mL
  AUC(0-t): 2680 ± 960 ng·h/mL
[2]; both sexes, human, po, 50 mg, 50 mg bid oral, day 0, read-out: tmax
  Tmax: 2 h
[2]; [4]
  Cmax: 1010 ± 590 ng/mL
  AUC(0-t): 2810 ± 1210 ng·h/mL
[2]; both sexes, human, po, 50 mg, 50 mg bid oral, day 28, read-out: tmax
  Tmax: 2 h
[2]; [5]
  Cmax: 1790 ± 600 ng/mL
  AUC(0-t): 5220 ± 1810 ng·h/mL
[2]; both sexes, human, po, 100 mg, 100 mg bid oral, day 0, read-out: tmax
  Tmax: 2.5 h
[2]; [6]
  Cmax: 1860 ± 630 ng/mL
  AUC(0-t): 6010 ± 1890 ng·h/mL
[2]; both sexes, human, po, 100 mg, 100 mg bid oral, day 28, read-out: tmax
  Tmax: 2 h
[2]; [7]
  Cmax: 4210 ± 2160 ng/mL
  AUC(0-t): 11700 ± 3570 ng·h/mL
[2]; both sexes, human, po, 200 mg, 200 mg bid oral, day 0, read-out: tmax
  Tmax: 3 h
[2]; [8]
  Cmax: 4380 ± 3100 ng/mL
  AUC(0-t): 11100 ± 3020 ng·h/mL
[2]; both sexes, human, po, 200 mg, 200 mg bid oral, day 28, read-out: tmax
  Tmax: 2 h
[2]; [9]
  Cmax: 5540 ± 1800 ng/mL
  AUC(0-t): 17200 ± 5280 ng·h/mL
[2]; both sexes, human, po, 400 mg, 400 mg qd oral, day 0, read-out: tmax
  Tmax: 3 h
[2]; [10]
  Cmax: 4790 ± 2640 ng/mL
  AUC(0-t): 15300 ± 5590 ng·h/mL
[2]; both sexes, human, po, 400 mg, 400 mg qd oral, day 28, read-out: tmax
  Tmax: 2 h
[2]; both sexes, human, 50 mg bid oral, day 28
  AUC: 3660 ± 1290 ng·h/mL
[2]; both sexes, human, 100 mg bid oral, day 28
  AUC: 8100 ± 2730 ng·h/mL
[2]; both sexes, human, 200 mg bid oral, day 28
  AUC: 14000 ± 3220 ng·h/mL
[2]; both sexes, human, 400 mg qd oral, day 28
  AUC: 25800 ± 9200 ng·h/mL
[2]; both sexes, human, blood plasma, oral administration
  half-life: 3 to 6 h
[1]; 50 mg bid, day 7, 100 mm VAS
  VAS pain, change from baseline: −19.5 (19.1)* mm
[1]; 50 mg bid, day 14, 100 mm VAS
  VAS pain, change from baseline: −22.6 (20.9)* mm
[1]; 50 mg bid, day 28, 100 mm VAS
  VAS pain, change from baseline: −28.6 mm
[1]; 100 mg bid, day 7, 100 mm VAS
  VAS pain, change from baseline: −19.2 (21.6)* mm
[1]; 100 mg bid, day 14, 100 mm VAS
  VAS pain, change from baseline: −21.2 (22.6)* mm
[1]; 100 mg bid, day 28, 100 mm VAS
  VAS pain, change from baseline: −26.3 mm
[1]; 200 mg bid, day 7, 100 mm VAS
  VAS pain, change from baseline: −22.0 (20.8)* mm
[1]; 200 mg bid, day 14, 100 mm VAS
  VAS pain, change from baseline: −24.1 (22.8)* mm
[1]; 200 mg bid, day 28, 100 mm VAS
  VAS pain, change from baseline: −29.6 mm
[1]; 400 mg once daily
  Pain relief of 400 mg once daily compared with 200 mg twice daily: the same or better pain relief as 200 mg twice daily
[1]; 400 mg once daily, day 28, throughout the measurement period
  Mean VAS scores compared with the other dose groups: best mean scores
[1]; 400 mg qd, day 7, 100 mm VAS
  VAS pain, change from baseline: −26.0 (22.4)*a, b mm
[1]; 400 mg qd, day 14, 100 mm VAS
  VAS pain, change from baseline: −27.5 (23.8)* mm
[1]; 400 mg qd, day 28, 100 mm VAS
  VAS pain, change from baseline: −33.2 mm
[1]; about 200 to about 1200 mg per day, immediate-release formulation, humans
  Duration of effective anti-inflammatory treatment after a single oral dose: 24 h
